Assay results taken from US4241066A, “14-Amino derivatives of morphine, methods of making them and analgesic compositions containing them” (priority 1977, dated 1980).

Tests used:
[1] = test system: opiate receptor; test: in vivo agonist test in the rat, tail pressure as nociceptive stimulus (Green and Young); settings: administered subcutaneously
Description: The compounds have been screened for agonist activity in the rat using tail pressure as the nociceptive stimulus as described by Green, H. F., and Young, P. A., Br. J. Pharmac. Chemother., 6, 572 (1951) and for morphine antagonist activity in rat using a tail flick test modified from the method described for mice by Ben Bassat et al (Arch Int. Pharmacoldyn. 122, 434 [1959]). The nociceptive stimulus in this test is a hot water bath (55° C.).

[2] = biological target: T1, opiate receptor (Rattus norvegicus, UniProt P33535); format: in vivo; settings: tail flick, hot water bath 55° C., administered subcutaneously
T1 construct: from tissue; host or cells: living rat (whole animal, subcutaneous dosing)
T1 sequence (P33535 whole entry): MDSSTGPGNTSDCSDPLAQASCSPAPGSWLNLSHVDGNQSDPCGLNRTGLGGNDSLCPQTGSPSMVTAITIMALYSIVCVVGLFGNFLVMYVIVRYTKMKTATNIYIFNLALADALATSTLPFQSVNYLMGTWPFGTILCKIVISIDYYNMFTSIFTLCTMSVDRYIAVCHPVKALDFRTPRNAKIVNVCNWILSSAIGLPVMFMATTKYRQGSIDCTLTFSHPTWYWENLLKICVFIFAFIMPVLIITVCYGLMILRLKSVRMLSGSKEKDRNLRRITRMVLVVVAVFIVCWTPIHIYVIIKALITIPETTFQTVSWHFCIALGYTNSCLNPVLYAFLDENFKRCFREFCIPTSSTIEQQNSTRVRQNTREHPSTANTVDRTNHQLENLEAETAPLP
Description: Chemother., 6, 572 (1951) and for morphine antagonist activity in rat using a tail flick test modified from the method described for mice by Ben Bassat et al (Arch Int. Pharmacoldyn. 122, 434 [1959]). The nociceptive stimulus in this test is a hot water bath (55° C.).

SMILES	ED50 (agonist, antinociceptive) [1] [mg/kg]	AD50 (morphine antagonist) [2] [mg/kg]
CCCCCCN[C@@]12C=CC(=O)[C@@H]3Oc4c(OC)ccc5c4[C@@]31CCN(CC1CC1)[C@@H]2C5 [Example 38]	1.92	–
O=C1C=C[C@@]2(NCC3CC3)[C@H]3Cc4ccc(O)c5c4[C@@]2(CCN3CC2CC2)[C@H]1O5 [Example 48]	–	0.0027
O=CN[C@@]12C=CC(=O)[C@@H]3Oc4c(O)ccc5c4[C@@]31CCN(CC1CC1)[C@@H]2C5 [Example 49]	–	0.132
CCCCCC(=O)N[C@@]12C=CC(=O)[C@@H]3Oc4c(O)ccc5c4[C@@]31CCN(CC1CC1)[C@@H]2C5 [Example 54]	0.0036	–
CN1CC[C@]23c4c5ccc(O)c4O[C@H]2[C@@H](O)C=C[C@H]3[C@H]1C5 [morphine]	0.66	–
